Test results as given in PubChem BioAssay (NCI).
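Cells were grown in 96-well plates and exposed to each compound for 48 hours at five concentrations; endpoints were interpolated linearly between bracketing concentrations, or set to the highest concentration if not reached. The concentration for 50% growth inhibition is given as GI50. Definition used: TGI = concentration required for complete inhibition of growth.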

Key:
Experiment in all cases: inhibition of tumour cell growth, NCI panel, 48 h
IGROV1 ovarian = system: IGROV1 ovarian
NCI-H522 lung = system: NCI-H522 lung
SK-OV-3 ovarian = system: SK-OV-3 ovarian
KM12 colon = system: KM12 colon
SK-MEL-5 melanoma = system: SK-MEL-5 melanoma
CAKI-1 renal = system: CAKI-1 renal
BT-549 breast = system: BT-549 breast
SF-295 CNS = system: SF-295 CNS
SNB-19 CNS = system: SNB-19 CNS
COLO 205 colon = system: COLO 205 colon
MDA-MB-231 breast = system: MDA-MB-231 breast
TK-10 renal = system: TK-10 renal
NCI-H460 lung = system: NCI-H460 lung
HT29 colon = system: HT29 colon
SW-620 colon = system: SW-620 colon
SF-539 CNS = system: SF-539 CNS
HCC-2998 colon = system: HCC-2998 colon
NCI-H226 lung = system: NCI-H226 lung
MDA-MB-435 = system: MDA-MB-435
SK-MEL-28 melanoma = system: SK-MEL-28 melanoma
HOP-92 NSCLC = system: HOP-92 NSCLC
A549 NSCLC = system: A549 NSCLC
DU-145 prostate = system: DU-145 prostate
RPMI-8226 leukemia = system: RPMI-8226 leukemia
T-47D breast = system: T-47D breast
UACC-62 melanoma = system: UACC-62 melanoma
NCI/ADR-RES ovarian = system: NCI/ADR-RES ovarian
HCT-15 colon = system: HCT-15 colon
786-0 renal = system: 786-0 renal
OVCAR-4 ovarian = system: OVCAR-4 ovarian
CCRF-CEM leukemia = system: CCRF-CEM leukemia
UO-31 renal = system: UO-31 renal
SN12C renal = system: SN12C renal
UACC-257 melanoma = system: UACC-257 melanoma
HOP-62 NSCLC = system: HOP-62 NSCLC
SNB-75 CNS = system: SNB-75 CNS
HS 578T breast = system: HS 578T breast
NCI-H23 lung = system: NCI-H23 lung
EKVX NSCLC = system: EKVX NSCLC
OVCAR-8 ovarian = system: OVCAR-8 ovarian
SK-MEL-2 melanoma = system: SK-MEL-2 melanoma
OVCAR-3 ovarian = system: OVCAR-3 ovarian
LOX IMVI melanoma = system: LOX IMVI melanoma
MCF7 breast = system: MCF7 breast
U251 CNS = system: U251 CNS
PC-3 prostate = system: PC-3 prostate
SF-268 CNS = system: SF-268 CNS
OVCAR-5 ovarian = system: OVCAR-5 ovarian

SMILES: CC(C)(C#N)c1cc(Cn2cncn2)cc(C(C)(C)C#N)c1
- GI50 (IGROV1 ovarian): 1.76 mM
- TGI (IGROV1 ovarian): > 10 mM
- GI50 (NCI-H522 lung): 2.63 mM
- TGI (NCI-H522 lung): > 10 mM
- GI50 (SK-OV-3 ovarian): > 10 mM
- TGI (SK-OV-3 ovarian): > 10 mM
- GI50 (KM12 colon): > 10 mM
- TGI (KM12 colon): > 10 mM
- GI50 (SK-MEL-5 melanoma): 0.106 mM
- TGI (SK-MEL-5 melanoma): > 10 mM
- GI50 (CAKI-1 renal): > 10 mM
- TGI (CAKI-1 renal): > 10 mM
- GI50 (BT-549 breast): 0.472 mM
- TGI (BT-549 breast): > 10 mM
- GI50 (SF-295 CNS): 0.299 mM
- TGI (SF-295 CNS): > 10 mM
- GI50 (SNB-19 CNS): > 10 mM
- TGI (SNB-19 CNS): > 10 mM
- GI50 (COLO 205 colon): 2.07 mM
- TGI (COLO 205 colon): > 10 mM
- GI50 (MDA-MB-231 breast): 0.539 mM
- TGI (MDA-MB-231 breast): > 10 mM
- GI50 (TK-10 renal): 0.564 mM
- TGI (TK-10 renal): > 10 mM
- GI50 (NCI-H460 lung): 3.99 mM
- TGI (NCI-H460 lung): > 10 mM
- GI50 (HT29 colon): 3.05 mM
- TGI (HT29 colon): > 10 mM
- GI50 (SW-620 colon): > 10 mM
- TGI (SW-620 colon): > 10 mM
- GI50 (SF-539 CNS): 2.45 mM
- TGI (SF-539 CNS): > 10 mM
- GI50 (HCC-2998 colon): > 10 mM
- TGI (HCC-2998 colon): > 10 mM
- GI50 (NCI-H226 lung): 0.718 mM
- TGI (NCI-H226 lung): > 10 mM
- GI50 (MDA-MB-435): > 10 mM
- TGI (MDA-MB-435): > 10 mM
- GI50 (SK-MEL-28 melanoma): > 10 mM
- TGI (SK-MEL-28 melanoma): > 10 mM
- GI50 (HOP-92 NSCLC): 0.297 mM
- TGI (HOP-92 NSCLC): 2.98 mM
- GI50 (A549 NSCLC): 0.933 mM
- TGI (A549 NSCLC): > 10 mM
- GI50 (DU-145 prostate): > 10 mM
- TGI (DU-145 prostate): > 10 mM
- GI50 (RPMI-8226 leukemia): 0.183 mM
- TGI (RPMI-8226 leukemia): 0.698 mM
- GI50 (T-47D breast): 6.76 mM
- TGI (T-47D breast): > 10 mM
- GI50 (UACC-62 melanoma): 0.768 mM
- TGI (UACC-62 melanoma): > 10 mM
- GI50 (NCI/ADR-RES ovarian): 0.477 mM
- TGI (NCI/ADR-RES ovarian): > 10 mM
- GI50 (HCT-15 colon): > 10 mM
- TGI (HCT-15 colon): > 10 mM
- GI50 (786-0 renal): 0.892 mM
- TGI (786-0 renal): > 10 mM
- GI50 (OVCAR-4 ovarian): > 10 mM
- TGI (OVCAR-4 ovarian): > 10 mM
- GI50 (CCRF-CEM leukemia): 0.393 mM
- TGI (CCRF-CEM leukemia): 2.48 mM
- GI50 (UO-31 renal): 0.72 mM
- TGI (UO-31 renal): > 10 mM
- GI50 (SN12C renal): > 10 mM
- TGI (SN12C renal): > 10 mM
- GI50 (UACC-257 melanoma): > 10 mM
- TGI (UACC-257 melanoma): > 10 mM
- GI50 (HOP-62 NSCLC): 0.921 mM
- TGI (HOP-62 NSCLC): > 10 mM
- GI50 (SNB-75 CNS): > 10 mM
- TGI (SNB-75 CNS): > 10 mM
- GI50 (HS 578T breast): 0.289 mM
- TGI (HS 578T breast): > 10 mM
- GI50 (NCI-H23 lung): > 10 mM
- TGI (NCI-H23 lung): > 10 mM
- GI50 (EKVX NSCLC): 0.4 mM
- TGI (EKVX NSCLC): > 10 mM
- GI50 (OVCAR-8 ovarian): > 10 mM
- TGI (OVCAR-8 ovarian): > 10 mM
- TGI (SK-MEL-2 melanoma): 3.59 mM
- GI50 (OVCAR-3 ovarian): > 10 mM
- TGI (OVCAR-3 ovarian): > 10 mM
- GI50 (LOX IMVI melanoma): > 10 mM
- TGI (LOX IMVI melanoma): > 10 mM
- GI50 (MCF7 breast): 2.24 mM
- TGI (MCF7 breast): > 10 mM
- GI50 (U251 CNS): > 10 mM
- TGI (U251 CNS): > 10 mM
- GI50 (PC-3 prostate): 0.792 mM
- TGI (PC-3 prostate): > 10 mM
- GI50 (SF-268 CNS): > 10 mM
- TGI (SF-268 CNS): > 10 mM
- GI50 (OVCAR-5 ovarian): > 10 mM
- TGI (OVCAR-5 ovarian): > 10 mM
